Data published in PubChem BioAssay (NCI).
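Dose response: 5 concentrations. Exposure: 48 h. Format: 96-well plates. Endpoint: linear interpolation; highest concentration if not reached. GI50 = concentration required for 50% inhibition of growth. The concentration for full growth arrest is given as TGI.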

Experiments:
Experiment in all cases: NCI-60 cell line screen, 48 h
OVCAR-3 ovarian = tested on: OVCAR-3 ovarian
A498 renal = tested on: A498 renal
UO-31 renal = tested on: UO-31 renal
IGROV1 ovarian = tested on: IGROV1 ovarian
786-0 renal = tested on: 786-0 renal
RXF 393 renal = tested on: RXF 393 renal
SNB-19 CNS = tested on: SNB-19 CNS
U251 CNS = tested on: U251 CNS
OVCAR-8 ovarian = tested on: OVCAR-8 ovarian
PC-3 prostate = tested on: PC-3 prostate

Work on COc1cc2ccc1-c1cc(ccc1O)CC1c3cc4c(cc3CCN1C)Oc1c(OC)cc3c(c1O4)C(C2)N(C)CC3 (centres undefined) yielded a TGI (OVCAR-3 ovarian) of 3.93 µM, a TGI (A498 renal) of 3.79 µM and a TGI (UO-31 renal) of 3.27 µM. The TGI (IGROV1 ovarian) was 4.35 µM, the TGI (786-0 renal) was 3.15 µM and the TGI (RXF 393 renal) was 3.24 µM. For the same molecule, the TGI (SNB-19 CNS) was 4.28 µM and the TGI (U251 CNS) was 3.07 µM.

In the case of CC[C@H](Nc1nc(N)nc(N)c1Cl)c1nc2cccc(NCc3ccc(C(=O)NO)cc3)c2c(=O)n1-c1ccccc1, the GI50 (A498 renal) was 1.34 µM, the TGI (A498 renal) was 2.71 µM and the GI50 (RXF 393 renal) was 0.403 µM. It also gave a TGI (RXF 393 renal) of 1.75 µM, a GI50 (OVCAR-8 ovarian) of 1.69 µM and a TGI (OVCAR-8 ovarian) of 5.05 µM. It also gave a GI50 (SNB-19 CNS) of 1.7 µM, a TGI (SNB-19 CNS) of 4.18 µM and a GI50 (U251 CNS) of 1.51 µM. For the same molecule, the TGI (U251 CNS) was 3.08 µM, the GI50 (PC-3 prostate) was 1.53 µM and the TGI (PC-3 prostate) was 3.7 µM.

For Cc1ncc(CO)c(CN)c1O, the TGI (OVCAR-3 ovarian) was > 100 µM, the TGI (A498 renal) was > 100 µM and the TGI (UO-31 renal) was > 100 µM. For the same molecule, the TGI (IGROV1 ovarian) was > 100 µM, the TGI (786-0 renal) was > 100 µM and the TGI (RXF 393 renal) was > 100 µM. For the same molecule, the TGI (OVCAR-8 ovarian) was > 100 µM, the TGI (SNB-19 CNS) was > 100 µM and the TGI (U251 CNS) was > 100 µM. The TGI (PC-3 prostate) was > 100 µM.

In the case of COc1cnc2c(c1)C(=O)c1c-2n(CCCN2CCNCC2)c(=O)c2cc(Cl)ccc12, the GI50 (OVCAR-3 ovarian) was 1.43 µM, the TGI (OVCAR-3 ovarian) was 2.83 µM and the GI50 (A498 renal) was 0.551 µM. For the same molecule, the TGI (A498 renal) was 2.28 µM, the GI50 (UO-31 renal) was 1.03 µM and the TGI (UO-31 renal) was 2.41 µM.

In the case of CC(C)CNc1nc(N)[nH]c(=O)c1NC=O, the TGI (OVCAR-3 ovarian) was > 100 µM, the TGI (A498 renal) was > 100 µM and the TGI (UO-31 renal) was > 100 µM. For the same molecule, the TGI (IGROV1 ovarian) was > 100 µM, the TGI (786-0 renal) was > 100 µM and the TGI (RXF 393 renal) was > 100 µM. For the same molecule, the TGI (OVCAR-8 ovarian) was > 100 µM, the TGI (SNB-19 CNS) was > 100 µM and the TGI (U251 CNS) was > 100 µM. For the same molecule, the TGI (PC-3 prostate) was > 100 µM.

With Cc1c2ccnc(-c3ccccc3)c2cc2c1[nH]c1ccccc12 the TGI (OVCAR-3 ovarian) was 8.99 µM, the TGI (A498 renal) was 10.6 µM and the TGI (UO-31 renal) was 4.29 µM. It also gave a TGI (IGROV1 ovarian) of 21.4 µM, a TGI (RXF 393 renal) of 6.22 µM and a TGI (OVCAR-8 ovarian) of 7 µM. It also gave a TGI (SNB-19 CNS) of 17.9 µM and a TGI (U251 CNS) of 7.76 µM.

In the case of Cn1cnc([N+](=O)[O-])c1SCC(=O)O, the TGI (OVCAR-3 ovarian) was > 100 µM, the TGI (A498 renal) was > 100 µM and the TGI (UO-31 renal) was > 100 µM. For the same molecule, the TGI (IGROV1 ovarian) was > 100 µM, the TGI (786-0 renal) was > 100 µM and the TGI (RXF 393 renal) was > 100 µM. For the same molecule, the TGI (OVCAR-8 ovarian) was > 100 µM, the TGI (SNB-19 CNS) was > 100 µM and the TGI (U251 CNS) was > 100 µM. For the same molecule, the TGI (PC-3 prostate) was > 100 µM.

O=C(c1cc(Br)ccc1O)c1cc(Br)ccc1O was tested, and the TGI (OVCAR-3 ovarian) was 29.2 µM, the TGI (A498 renal) was 31.4 µM and the TGI (UO-31 renal) was 27.4 µM. The TGI (IGROV1 ovarian) was 27.8 µM, the TGI (786-0 renal) was 30.6 µM and the TGI (RXF 393 renal) was 27.9 µM. For the same molecule, the TGI (OVCAR-8 ovarian) was 32 µM, the TGI (SNB-19 CNS) was 32.3 µM and the TGI (U251 CNS) was 28.8 µM. The TGI (PC-3 prostate) was 30.8 µM.

With NCS(=O)(=O)O the TGI (OVCAR-3 ovarian) was > 100 µM, the TGI (A498 renal) was > 100 µM and the TGI (UO-31 renal) was > 100 µM. For the same molecule, the TGI (IGROV1 ovarian) was > 100 µM, the TGI (786-0 renal) was > 100 µM and the TGI (RXF 393 renal) was > 100 µM. For the same molecule, the TGI (OVCAR-8 ovarian) was > 100 µM, the TGI (SNB-19 CNS) was > 100 µM and the TGI (U251 CNS) was > 100 µM. The TGI (PC-3 prostate) was > 100 µM.

With C[n+]1cccc(/C=C/c2ccc3cccc(O)c3n2)c1 the TGI (OVCAR-3 ovarian) was > 100 µM, the TGI (A498 renal) was > 100 µM and the TGI (UO-31 renal) was > 100 µM. For the same molecule, the TGI (IGROV1 ovarian) was > 100 µM, the TGI (786-0 renal) was > 100 µM and the TGI (RXF 393 renal) was > 100 µM. The TGI (OVCAR-8 ovarian) was > 100 µM, the TGI (SNB-19 CNS) was > 100 µM and the TGI (U251 CNS) was > 100 µM. For the same molecule, the TGI (PC-3 prostate) was > 100 µM.
